In the NIST ThermoML archive (doi:10.1021/acs.jced.7b01006):

Tests used:
[1] = for electrical conductivity / viscosity / mass density: 100 kPa, Liquid; for electrical conductivity: Alternating current cell with electrodes; for viscosity: Falling or rolling sphere viscometry; for mass density: Vibrating tube method; for surface tension liquid-gas: Wilhelmy plate
[2] = xn = mol fraction of the nth substance listed; settings: 100 kPa, Liquid, x2 = 0; for viscosity: Falling or rolling sphere viscometry; for mass density: Vibrating tube method

CCC[n+]1ccn(C)c1C.N#C[S-] [1,2-dimethyl-3-propylimidazolium thiocyanate]
[1]
Settings	electrical conductivity [S/m]	mass density [kg/m3]	surface tension liquid-gas [mN/m]	viscosity [mPa·s]
288.15 K	0.255	1099.81	–	316.5
293.15 K	0.361	1096.75	–	215.8
298.15 K	0.459	1093.67	48.8	151.9
303.15 K	0.583	1090.61	–	110.1
308.15 K	0.733	1087.57	–	83.42
313.15 K	0.905	1084.55	–	64.78
318.15 K	1.1	1081.54	–	50.96
323.15 K	1.33	1078.54	–	41.55

CCCCn1cc[n+](C)c1C.N#C[S-] [1-butyl-2,3-dimethylimidazolium thiocyanate]
[1]
Settings	electrical conductivity [S/m]	mass density [kg/m3]	surface tension liquid-gas [mN/m]	viscosity [mPa·s]
288.15 K	0.106	1084.2	–	452.7
293.15 K	0.153	1081.11	–	311.3
298.15 K	0.217	1078.2	44.8	218
303.15 K	0.293	1075.18	–	157.9
308.15 K	0.386	1072.16	–	118.9
313.15 K	0.496	1069.15	–	90.46
318.15 K	0.627	1066.16	–	72.04
323.15 K	0.774	1063.2	–	57.11

CC#N [acetonitrile]
[1]
Settings	mass density [kg/m3]	viscosity [mPa·s]
288.15 K	787.58	0.376
293.15 K	781.89	0.357
298.15 K	776.52	0.339
303.15 K	771.12	0.324
308.15 K	765.83	0.309
313.15 K	760.36	0.295
318.15 K	755.14	0.283
323.15 K	749.44	0.272

CC#N [acetonitrile] + CCCCn1cc[n+](C)c1C.N#C[S-]
[2]
Settings	mass density [kg/m3]	viscosity [mPa·s]
288.15 K	787.58	0.376
293.15 K	781.89	0.357
298.15 K	776.52	0.339
303.15 K	771.12	0.324
308.15 K	765.83	0.309
313.15 K	760.36	0.295
318.15 K	755.14	0.283
323.15 K	749.44	0.272

CC#N [acetonitrile] + CCC[n+]1ccn(C)c1C.N#C[S-]
[2]
Settings	mass density [kg/m3]	viscosity [mPa·s]
288.15 K	787.58	0.376
293.15 K	781.89	0.357
298.15 K	776.52	0.339
303.15 K	771.12	0.324
308.15 K	765.83	0.309
313.15 K	760.36	0.295
318.15 K	755.14	0.283
323.15 K	749.44	0.272
